This assay deals with cAMP and cAMP-inhibited cGMP 3',5'-cyclic phosphodiesterase 10A (Homo sapiens, UniProt Q9Y233). Kind of assay: PDE10A assay. As to the method:
Compounds were diluted in 20 mM HEPES/NaOH (pH 7.5), 10 mM MgCl2 and 0.05 mg/ml bovine serum albumin. A fixed amount of 2 ng/well human PDE10A enzyme was added and incubated at room temperature for 15 min under agitation. The reaction was started by the addition of the substrate cocktail [3H]cGMP (Perkin Elmer NET337001MC, S.A. 13.5 Ci/mmol) / cGMP at a final concentration of 50 nM and incubated for an additional 15 min. The reaction was stopped by the addition of 0.5 mg/well of Y-Si SPA beads. The plates were shaken for 1 h, followed by a brief centrifugation (170 g for 1 min). The radioactivity bound to the beads was estimated using a TopCount (Perkin-Elmer). For the determination of IC50 values, a four parameters logistics equation was used. pIC50 is defined as − log10(IC50).

In general, IC50 refers to the midpoint of a concentration-inhibition curve. Read a low IC50 as greater potency. For the molecule `CC(C)Oc1cncc(NC(=O)c2nc(C3CC3)cnc2Nc2cncnc2)c1` [Roche-Dataset for PDE10A, Compound 816], the IC50 turned out to be 63 nM.
Turning to `O=C(N[C@@H]1C[C@H]2CC[C@@H]1C2)c1nc(C2CC2)cnc1Nc1cncnc1` [Roche-Dataset for PDE10A, Compound 1126], the IC50 came to 1080 nM.
`O=C(NCc1cn2ccsc2n1)c1nc(C2CC2)cnc1Nc1cncnc1` [Roche-Dataset for PDE10A, Compound 838] yielded a concentration for half-maximal inhibition (IC50) of 38 nM.
The value for `CCOC(=O)c1nnsc1NC(=O)c1nc(C2CC2)ccc1Nc1cncnc1` [Roche-Dataset for PDE10A, Compound 1107] was 36 nM; that for `CCOC(=O)c1cnn(C)c1C(=O)Nc1ccc2nc(N3CCOCC3)nn2c1` [Roche-Dataset for PDE10A, Compound 1117] was 1990 nM.
The figure for `Cc1c(C(F)(F)F)nc2ccc(C#Cc3nc(N4CCCC4)n(C)n3)nn12` [3-Methyl-6-((1-methyl-5-(pyrrolidin-1-yl)-1H-1,2,4-triazol-3-yl)ethynyl)-2-(trifluoromethyl)imidazo[1,2-b]pyridazine] is 3.92 nM; for `CNC(=O)c1cn(C)c(CCc2nc3c(C)ncc(C)n3n2)n1` [Roche-Dataset for PDE10A, Compound 675] it is 228 nM; for `CC(C)c1nc2cc(NC(=O)c3c(C(=O)O)cnn3C)ccn2n1` [Roche-Dataset for PDE10A, Compound 848] it is 1230 nM.
The figure for `COCCn1nc(-c2ccccn2)cc1NC(=O)c1nc(C2CC2)ccc1Nc1cncnc1` [US8470820, 38] is 0.18 nM; for `Cn1cc(-c2ccccc2)nc1COc1nc(OC2CCOCC2)c2cc(Cl)ccc2n1` [Roche-Dataset for PDE10A, Compound 100] it is 16 nM.
`COc1ccc(-c2nc3cc(NC(=O)c4c(C(=O)N5CCC5)cnn4C)ccn3n2)cc1` [Roche-Dataset for PDE10A, Compound 820] registered an IC50 of 7.9 nM.
`CC(=O)c1cccc(NC(=O)c2nc(C3CC3)cnc2Nc2cncnc2)c1` [Roche-Dataset for PDE10A, Compound 957] came in with an IC50 of 19 nM.
The figure for `Cc1cc(C)n2nc(CCc3nc(N(C)C)nn3C)nc2n1` [Roche-Dataset for PDE10A, Compound 1140] is 535 nM.
The value for `COc1ncc(C2CC2)nc1C(=O)Nc1ccn2nc(-c3ccccc3)nc2c1` [Roche-Dataset for PDE10A, Compound 514] was 17 nM; that for `Nc1ccc(C2CC2)nc1C(=O)Nc1cc2nc(-c3ccccc3)[nH]c2cc1C(=O)NC1COC1` [Roche-Dataset for PDE10A, Compound 243] was 11 nM; that for `Cn1ncc(C(=O)NCc2cccc(C(F)(F)F)n2)c1C(=O)Nc1ccn2cc(-c3ccccc3)nc2n1` [Roche-Dataset for PDE10A, Compound 1157] was 4780 nM.
In turn, `O=C(Nc1cccnn1)c1nc(C2CC2)cnc1Nc1cncnc1` [Roche-Dataset for PDE10A, Compound 1105] came in with an IC50 of 271 nM.
In turn, `CNC(=O)c1c(-c2nc(CCc3nc4c(C)ncc(C)n4n3)n(C)n2)cnn1C` [Roche-Dataset for PDE10A, Compound 290] came in with a 50% inhibitory concentration (IC50) of 337 nM.
The figure for `CN(C(=O)c1cnn(C)c1C(=O)N[C@@H]1CCn2cc(-c3ccccc3)nc2C1)C1CC1` [Roche-Dataset for PDE10A, Compound 133] is 4.3 nM; for `COc1c(C)cnc(CCc2nc(-c3ccccc3)cn2C)c1C` [Roche-Dataset for PDE10A, Compound 197] it is 680 nM; for `Cn1nc(-c2ccccn2)cc1NC(=O)c1cccn(C)c1=O` [Roche-Dataset for PDE10A, Compound 710] it is 4410 nM.
The value for `COCCn1nccc1NC(=O)c1nc(C2CC2)ccc1Nc1cncnc1` [Roche-Dataset for PDE10A, Compound 868] was 43 nM; that for `O=C(c1nc(C2CC2)cnc1Nc1cncnc1)N1CCN(C2CCCC2)CC1` [Roche-Dataset for PDE10A, Compound 1039] was 10000 nM.
